# From patent US20080027079A1, “DIHYDROOROTATE DEHYDROGENASE INHIBITORS WITH SELECTIVE ANTI-MALARIAL ACTIVITY” (Board of Regents, University of Texas System, priority 2006, published 2008)
# Like-named read-outs stand apart in the source and are kept apart here.
# What was measured:
# [1] = target: T1, P. falciparum dihydroorotate dehydrogenase (pfDHODH) (Plasmodium falciparum, UniProt Q08210); experiment: biochemical
# T1 sequence (Q08210 24-569): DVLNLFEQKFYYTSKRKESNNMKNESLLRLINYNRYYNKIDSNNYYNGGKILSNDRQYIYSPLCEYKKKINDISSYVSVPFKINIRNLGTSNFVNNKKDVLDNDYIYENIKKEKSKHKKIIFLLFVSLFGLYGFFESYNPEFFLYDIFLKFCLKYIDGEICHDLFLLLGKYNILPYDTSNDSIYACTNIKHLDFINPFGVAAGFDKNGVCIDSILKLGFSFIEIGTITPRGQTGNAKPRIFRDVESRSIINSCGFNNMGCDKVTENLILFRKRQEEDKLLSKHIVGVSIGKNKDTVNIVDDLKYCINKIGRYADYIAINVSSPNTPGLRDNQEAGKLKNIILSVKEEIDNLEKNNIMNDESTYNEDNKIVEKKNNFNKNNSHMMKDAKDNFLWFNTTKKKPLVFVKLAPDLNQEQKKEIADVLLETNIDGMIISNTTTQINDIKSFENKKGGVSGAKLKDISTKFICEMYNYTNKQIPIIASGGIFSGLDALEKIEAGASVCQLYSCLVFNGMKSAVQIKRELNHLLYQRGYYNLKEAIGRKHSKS
# Protocol: (§1) Measurement of enzyme inhibition. For studying inhibition of Plasmodium or human DHODH enzyme, two assays that are in routine use are described, for example, in Baldwin, et al. (2002) J Biol Chem., 277, 41827-41834, and Baldwin, et al. (2005) J. Biol. Chem., 280. 21847-21853. Briefly, these assays are as follows: 1) A […] assay thay that monitors 2,6-dichloroindophenol (DCIP) reduction at 600 nm (e=18.8 mM^−1 cm^−1) is performed as either a continuous assay where absorbance is recorded over time. The assay solution containing 100 mM HEPES, pH 8.0, 150 mM NaCl, 10% glycerol, 0.05% Triton X-[…] CoQ0 (coenzyme QD), […] L-dihydroorotate, and […] DCIP. Reactions are initiated by addition of enzyme to a final concentration of 5-50 nM and the temperature is maintained at 25° C with a circulating water bath. 2) A direct assay that follows the production of orotic acid by measuring the absorbance change at 287 nm (ε=4.3 mM^−1 cm^−1); DCIP is not included, but all other components of the assay are as described in method one. Inhibitor stocks are prepared in DMSO, and the inhibitors, such as GR-34, are added to these assays over a concentration range that encompasses their IC50 value and, the IC50's are determined from a plot of reaction rate in the presence of inhibitor/reaction rate in the absence of inhibitor (vi/vo) versus inhibitor concentration (Eq. 1). [formula]
# P. falciparum 3D7 = experiment: 3H-hypoxanthine uptake in P. falciparum-infected erythrocytes in culture (whole cell assay); assay type: cell-based; settings: Plasmodium falciparum, Erythrocyte; 3D7 strain, in vitro
# Protocol: In vitro evaluation of compound efficacy on the human malaria parasite, P. falciparum. To study inhibition of cell proliferation, ^3H-hypoxanthine uptake is measured in drug-treated, P. falciparum-infected erythrocytes grown in culture, pursuant to the methodology of Desjardins, et al. (1979) Antimicrobial Agents and Chemotherapy 16, 710-718, and Zhang and Rathod (2002) Science 296, 545-547.
# [2] = target: human dihydroorotate dehydrogenase (hDHODH) (Homo sapiens, UniProt Q02127); experiment: hDHODH enzyme inhibition (DCIP colorimetric or direct orotate assay); assay type: biochemical
# Protocol: as §1
# Chain of human dihydroorotate dehydrogenase (hDHODH) (Q02127 whole entry): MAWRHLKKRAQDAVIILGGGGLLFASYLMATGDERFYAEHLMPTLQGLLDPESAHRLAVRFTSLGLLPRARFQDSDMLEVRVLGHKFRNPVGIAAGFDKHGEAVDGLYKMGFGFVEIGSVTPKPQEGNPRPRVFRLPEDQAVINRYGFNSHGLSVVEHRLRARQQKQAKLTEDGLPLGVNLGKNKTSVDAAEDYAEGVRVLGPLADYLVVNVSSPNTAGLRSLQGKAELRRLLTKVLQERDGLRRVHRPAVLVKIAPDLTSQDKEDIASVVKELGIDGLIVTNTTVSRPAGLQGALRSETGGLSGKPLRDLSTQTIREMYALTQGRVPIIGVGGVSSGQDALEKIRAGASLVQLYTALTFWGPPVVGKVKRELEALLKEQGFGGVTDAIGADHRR
IC50 ([1]; read-out: IC50 pf DHODH) [nM],EC50 (P. falciparum 3D7) [nM],IC50 [2] [µM],Structure (SMILES),IC50 [1] [nM]
130,,,"Cc1nc2ncnn2c(Nc2ccc3ccccc3c2)c1C [5,6-dimethyl-N-(naphthalen-2-yl)-[1,2,4]triazolo[1,5-a]pyrimidin-7-amine]",
280,,,"CCc1cc(Nc2ccc3ccccc3c2)n2ncnc2n1 [5-ethyl-N-(naphthalen-2-yl)-[1,2,4]triazolo[1,5-a]pyrimidin-7-amine]",
2400,600,,"Cc1cc(Nc2cc3ccccc3cc2O)n2ncnc2n1 [5-methyl-N-(3-hydroxynaphthalen-2-yl)-[1,2,4]triazolo[1,5-a]pyrimidin-7-amine]",
1900,,> 200,"Cc1cc(Nc2ccc3c(=O)ccoc3c2)n2ncnc2n1 [5-methyl-N-(4H-chromen-4-on-7-yl)-[1,2,4]triazolo[1,5-a]pyrimidin-7-amine]",
23,120,> 200,"Cc1cc(Nc2ccc3cc4ccccc4cc3c2)n2ncnc2n1 [5-methyl-N-(anthracen-2-yl)-[1,2,4]triazolo[1,5-a]pyrimidin-7-amine]",
,50,> 600,"Cc1cc(Nc2ccc3ccccc3c2)n2ncnc2n1 [5-methyl-N-(naphthalen-2-yl)-[1,2,4]triazolo[1,5-a]pyrimidin-7-amine]",
2000,,> 200,"Cc1cc(Nc2cnc3ccccc3c2)n2ncnc2n1 [5-methyl-N-(quinolin-3-yl)-[1,2,4]triazolo[1,5-a]pyrimidin-7-amine]",
126,,> 200,"FC(F)(F)c1cc(Nc2ccc3ccccc3c2)n2ncnc2n1 [5-trifluoromethyl-N-(naphthalen-2-yl)-[1,2,4]triazolo[1,5-a]pyrimidin-7-amine]",
250,,,"Cc1nc2ncnn2c(Nc2ccc3cc4ccccc4cc3c2)c1C [N-(anthracen-2-yl)-5,6-dimethyl-[1,2,4]triazolo[1,5-a]pyrimidin-7-amine]",
240,,,"CCc1cc(Nc2ccc3cc4ccccc4cc3c2)n2ncnc2n1 [N-(anthracen-2-yl)-5-ethyl-[1,2,4]triazolo[1,5-a]pyrimidin-7-amine]",

Structure (SMILES),IC50 ([1]; read-out: IC50 pf DHODH) [nM],EC50 (P. falciparum 3D7) [nM],IC50 [2] [µM],IC50 [1] [nM]
"Cc1cc(Nc2ccc3ncccc3c2)n2ncnc2n1 [5-methyl-N-(quinolin-6-yl)-[1,2,4]triazolo[1,5-a]pyrimidin-7-amine]",,,> 200,1300
